We go through one substance from patent publication US20110160121A1, “UNACYLATED GHRELIN AND ANALOGS AS THERAPEUTIC AGENTS FOR VASCULAR REMODELING IN DIABETIC PATIENTS AND TREATMENT OF CARDIOVASCULAR DISEASE” (ALIZE PHARMA SAS, priority 2008, published 2011).

Where no end group is shown, it is not given here.

For this assay, the system named is CAC. In words: Matrigel-plug assay: de novo vessel formation by CAC from diabetic patients in SCID mice. The format is in vivo, human. On the procedure: To evaluate whether CAC recovered from UAG-treated diabetic patients rescue their vasculogenic capability, de novo vessel formation was assayed in vivo. To this end, Matrigel plugs containing IL-3 and CSFE-labelled CAC, recovered from untreated or UAG-treated patients, were injected into SCID mice, 15 days after injection Matrigel plugs were recovered and analyzed by immunohistochemistry. […] On the contrary no functional vessels could be detected when CAC recovered from untreated patients were used (FIG. 4E, panel a (left)). To exclude the possibility that the neo-vessels derived from vasculogenic cells of host origin, immunofluorescence assay was performed using the anti-human HLA Class I and the anti-mouse MHC II antibodies.
Matrigel-plug assay—For murine angiogenesis assay, untreated or UAG-treated CAC, obtained from type 2 diabetic patients, were counted and resuspended in DMEM (4×10^6 in 250 μL DMEM). […]
Immunohistochemistry and immunofluorescence—For immunohistochemistry, sections from paraffin-embedded blocks of Matrigel plugs were collected onto poly-lysine-coated slides. […] The percentage of positive cells was counted in 4 non-sequential sections for each experiment at ×40 magnification. […] The number of MHC II or HLA I positive vessels was determined by counting 10 randomly selected fields in three different samples.

“1-NH2Gly-Ser-Ser-Phe-Leu-Ser-Pro-Glu-His-Gln-Arg-Val-Gln-Gln-Arg-Lys-Glu-Ser-Lys-Lys-Pro-Pro-Ala-Lys-Leu-Gln-Pro-Arg-28 (H-GSSFLSPEHQRVQQRKESKKPPAKLQPR; ends and bridges not checked; listed as Homo sapiens) [UAG]”: the “de novo formation of functional vessels” value (CSFE-labelled CAC from UAG-treated diabetic patients, Matrigel plugs with IL-3 in SCID mice, 15 days, FIG. 4E) is reported as “formed functional vessels”. In addition, for the setting “Matrigel plugs, immunofluorescence, FIG. 4F”, the “origin of vessels (human HLA Class I vs mouse MHC II)” value is “majority of vessels are lined by human HLA Class I positive cells”.
